Reference: patent US20240350647A1, “STING SENSITIZING AGENTS” (STipe Therapeutics ApS, priority 2023, published 2024)
Where a SMILES comes first, the peptide text is derived from it. Bridges are numbered along the chain shown (N, C = ends). Where no end group is shown, it is not given here. [ ]: non-standard residue; d: D form. The star is where a group is joined. C16 diacid = O=C(O)CCCCCCCCCCCCCCC(=O)*; AEEA = NCCOCCOCC(=O)O

Key:
IFN-β = assay: Stimulation and sensitization assay in THP1 cells, IFN-β release (ELISA); assay type: cell-based, human; conditions: with 2 μM Agent 1
Method: THP1 cells were purchased from ATCC (TIB-202™) and cultured in RPMI 1640 supplemented with 10% FBS and 1% Penicillin/Streptomycin (P/S) at 37° C. and 5% CO2. Passaging of THP1 cells was kept below 20 passages.
ADU-S100 was dissolved according to manufacturer's protocol (tlrl-nacda2r) to 0.5 mg/mL in LAL and subsequently diluted in R10. diABZI Compound 3 was diluted from a 1 mM stock in 100% DMSO into R10. Agent 1 was dissolved to a stock solution of 1250 μM in 50% DMSO, 25 mM HEPES. Concentration of dissolved Agent 1 was determined by A280 measurement using Synergy HI (Biotek Gen5 SW). Subsequently, Agent 1 dilutions were prepared in RPMI 1640, 10% FBS, 1% P/S (R10).
Concentrations of CXCL10 and IFN-β in the collected supernatants were determined by Duo-Set ELISA from R&D. Absorbance measurements at 450/570 nm and quantification were done using Synergy HI plate reader (Biotek Gen5 SW), Microsoft Excel and GraphPad prism v. 9.3.1.
Data analysis and statistical analysis were done using GraphPad prism 9.3.1. […]
Dip: is the plateau in the middle of the curve, corresponding to EMax, same unite as y-axis. The EMax determined here are not derived from this regression, due to the limitations using bell shaped dose response. Instead, EMax-values were determined as the maximum response at any given STING agonist concentration for both IFN-β and CXCL10 from all experiments. […]

FIG. 9 = assay: FIG. 9
Method: Table printed on a drawing sheet, FIG. 9
The patent's description of the figure: FIG. 9. In vitro metabolic stability in blood.
First reader's note: Each column is one agent and each row gives its half-life in blood of one species at 37 °C; the test concentration is printed in the row label, or in the cells for human.

CD4+ T cells = assay: Dendritic Cell-T cell (DC-T) proliferation assay (ProImmune); conditions: 22 donors; Percentage Stimulation above Background ≥0.5%, SEM=2; peptides 0.34 μM
Source text: A panel of peripheral blood mononuclear cell (PBMC) samples from healthy human donors was selected from the ProImmune Ltd (UK) cell bank. Each PBMC sample was HLA (Human Leukocyte Antigen)-typed and stored in liquid nitrogen (vapor-phase) prior to use. The panel was selected so that HLA class II alleles known to be highly expressed in the global population were well represented (data not shown). Donors were predominantly selected by DRB1 allele expression.
A Dendritic Cell-T cell (DC-T) proliferation assay (ProImmune Ltd) was used to identify the presence or potential T cell epitopes within the peptides. Adherent donor PBMCs were cultured with appropriate growth factors to generate monocyte-derived DCs. DCs were then loaded with a control (control 1 and control 2), the peptide (Agent 1, Agent 2, and Agent 3, see FIG. 8A) or left untreated. The peptides were loaded at a final concentration of 0.34 μM.
Mature antigen-loaded DCs were then co-cultured at a fixed ratio with autologous CFSE-labelled T cells in multi-well plates. Each test condition was set up in eight replicate wells and cells were incubated for 7 days. At the end of the incubation period, cell samples were stained with anti-CD4 antibody, then washed and fixed for by flow cytometric analysis. Proliferation was determined by measuring a decrease in CFSE intensity.
Data were compiled to determine antigen-induced proliferation per individual donor, calculated as Percentage Stimulation above Background. The frequency of positive donor cell responses (Percentage Antigenicity) was calculated as the proportion of responding donors out of total donors. Values were then standardized against the strength of response (an average of the Percentage Stimulation value obtained across accepted donors for each protein) to give a response index (RI).
Data obtained by flow cytometric evaluation of cell samples was analyzed using FlowJo Software (Tree Star, Inc.). The number of CFSE-dim (i.e., proliferating) cells was determined for each sample in eight replicate wells. Counts for the CD4^+ CFSE dim population in each sample were expressed as a proportion of the total CD4^+ population. The eight replicate values were then used to calculate Percentage Stimulation above Background (proportion of CD4^+ CFSE dim cells with antigen stimulation minus the proportion of CD4^+ CFSE dim cells without antigen stimulation).
Background threshold values are based on data from unstimulated cells for which a maximum acceptable resting proliferation threshold is established.
In evaluating antigenicity, it is also appropriate to take account of the frequency of donor cell responses across the study cohort. A positive response (Percentage Stimulation above Background ≥0.5%) in 2 or more independent donor samples is considered indicative of a potential T cell epitope.
Depending on the size of the study, (20, 40 or 50 donors), two responding donors sets a threshold of 10%, 5% or 4% respectively. Thus, following calculation of Percentage Stimulation above Background, the frequency of positive donor cell responses (Percentage Antigenicity) is expressed as the proportion of responding donors out of total accepted donors screened.
When calculating the antigenicity of a protein it is important to consider the strength of a response as well as the frequency of that response. This is because some binding responses may be pan-allele, but these responses may not be very strong. The strength of positive donor cell responses was determined by taking an average of the percentage stimulation value obtained across accepted donors for each protein. Determining a Response Index (RI) through the multiplication of strength and frequency values is more representative of the level of antigenicity.

FIG. 10A = assay: FIG. 10A
Method: Table printed on a drawing sheet, FIG. 10A
(§1) The patent's description of the figure: FIGS. 10A-10C. Pharmacokinetic profile and parameter for peptides after intravenous administration. FIG. 10A) Mouse PK data (10 mg/kg, bolus IV, n=3 per timepoint). FIG. 10B) Rat PK data (10 mg/kg, bolus IV, n=3 per timepoint). FIG. 10C) Non-human primate (NHP) PK data (4 mg/kg, 30 min IV infusion, n=3). Error bars represent the standard deviation (SD).
First reader's note: Mouse PK parameters; the legend of the plot on the same sheet gives 10 mg/kg (IV) for both agents.

FIG. 10B = assay: FIG. 10B
Method: Table printed on a drawing sheet, FIG. 10B
as §1
First reader's note: Rat PK parameters; the plot legend on the same sheet gives 10 mg/kg (IV) for both agents, and the top-left cell 'PK parameters / rat' spans the first two rows.

FIG. 10C = assay: FIG. 10C
Method: Table printed on a drawing sheet, FIG. 10C
as §1
First reader's note: The species NHP stands in the head column of row 2, and the plot legend on the same sheet gives the dosing as 4 mg/kg (30-min IV) for both agents.

Compound: Nc1nc2c(ncn2[C@@H]2O[C@@H]3COP(=O)(O)O[C@H]4[C@@H](O)[C@H](n5cnc6c(N)ncnc65)O[C@@H]4COP(=O)(O)O[C@@H]2[C@@H]3O)c(=O)[nH]1 [2′3′-cGAMP, cyclic 2′3′ GMP-AMP]
- EC50 of cGAMP for IFN expression (IFN-β): around 20 μg/mL

Compound: CC[C@H](C)[C@H](NC(=O)[C@H](CC(N)=O)NC(=O)[C@H](CCCCN)NC(=O)[C@H](C)NC(=O)[C@H](CCCCN)NC(=O)[C@H](CCCCN)NC(=O)COCCOCCNC(=O)COCCOCCNC(=O)CCCCCCCCCCCCCCC(=O)O)C(=O)N[C@H](C(=O)N[C@@H](CC(C)C)C(=O)N[C@@H](CC(C)C)C(=O)N[C@@H](CCCCN)C(=O)NCC(=O)N[C@@H](CC(C)C)C(=O)N[C@@H](CCC(=O)O)C(=O)N[C@H](C(=O)N[C@H](C(=O)N[C@@H](CC(N)=O)C(=O)N[C@@H](CC(=O)O)C(=O)N[C@@H](Cc1c[nH]c2ccccc12)C(=O)N[C@@H](Cc1c[nH]cn1)C(=O)N[C@@H](Cc1ccccc1)C(=O)N[C@H]1CSSC[C@@H](C(N)=O)NC(=O)[C@@H](CCCNC(=N)N)NC(=O)[C@H](CCCNC(=N)N)NC(=O)[C@@H](CCCCN)NC(=O)[C@H](CCCCN)NC(=O)[C@@H](CCCNC(=N)N)NC(=O)CNC(=O)[C@@H](CCCNC(=N)N)NC(=O)[C@H](CCCNC(=N)N)NC(=O)[C@@H](CCCNC(=N)N)NC1=O)[C@@H](C)CC)C(C)C)C(C)C [Agent 1 T½ (min)] ({C16 diacid-AEEA-AEEA}-KKAKNIVLLKGLEVINDWHFC[dR]R[dR]G[dR]K[dK]R[dR]C-NH2; disulfide 21-31)
- Mouse (@ 5.0 µg/mL) (FIG. 9): 174 min
- NHP (@ 4.4 µg/mL) (FIG. 9): 172 min
- Rat (@ 5.0 µg/mL) (FIG. 9): 86 min

Compound: CC[C@H](C)[C@H](NC(=O)[C@H](CC(N)=O)NC(=O)[C@H](CCCCN)NC(=O)[C@H](C)NC(=O)[C@H](CCCCN)NC(=O)[C@@H](N)CCCCN)C(=O)N[C@H](C(=O)N[C@@H](CC(C)C)C(=O)N[C@@H](CC(C)C)C(=O)N[C@@H](CCCCN)C(=O)NCC(=O)N[C@@H](CC(C)C)C(=O)N[C@@H](CCC(=O)O)C(=O)N[C@H](C(=O)N[C@H](C(=O)N[C@@H](CC(N)=O)C(=O)N[C@@H](CC(=O)O)C(=O)N[C@@H](Cc1c[nH]c2ccccc12)C(=O)N[C@@H](Cc1c[nH]cn1)C(=O)N[C@@H](Cc1ccccc1)C(=O)N[C@H]1CSSC[C@@H](C(N)=O)NC(=O)[C@@H](CCCNC(=N)N)NC(=O)[C@H](CCCNC(=N)N)NC(=O)[C@@H](CCCCN)NC(=O)[C@H](CCCCN)NC(=O)[C@@H](CCCNC(=N)N)NC(=O)CNC(=O)[C@@H](CCCNC(=N)N)NC(=O)[C@H](CCCNC(=N)N)NC(=O)[C@@H](CCCNC(=N)N)NC1=O)[C@@H](C)CC)C(C)C)C(C)C [Agent 3] (H-KKAKNIVLLKGLEVINDWHFC[dR]R[dR]G[dR]K[dK]R[dR]C-NH2; disulfide 21-31; N-terminus assumed)
- Response Index (RI) (CD4+ T cells): 0.306
- percentage antigenicity (CD4+ T cells): 22.73%

Compound: KKYKNIVLLKGLEVINDYHFGRKKRRQRRRPQ-NH2 [Agent 2 T½ (min)]
- Mouse (@ 5.0 µg/mL) (FIG. 9): 4 min
- Rat (@ 5.0 µg/mL) (FIG. 9): 3 min

Compound: KKYKNIVLLKGLEVINDYHFGRKKRRQRRRPQ-NH2 [Agent 2, reference compound]
- Response Index (RI) (CD4+ T cells): 0.445
- percentage antigenicity (CD4+ T cells): 31.82%

Compound: KKYKNIVLLKGLEVINDYHFGRKKRRQRRRPQ-NH2 [Agent 2]
- AUC0-inf (FIG. 10A): 373 ng·h/mL
- Clobs (FIG. 10A): 447 mL/min/kg
- C0 (FIG. 10A; mouse, in vivo, iv, 10 mg/kg): 3910 ng/mL
- AUC0-inf (FIG. 10B): 225 ng·h/mL
- Clobs (FIG. 10B): 742 mL/min/kg
- C0 (FIG. 10B; rat, in vivo, iv, 10 mg/kg): 1730 ng/mL
- AUC0-inf (ng·h/mL) (FIG. 10C): 1,250 ng·h/mL
- C0 (ng/mL) (FIG. 10C): 2,760 ng/mL
- Clobs (FIG. 10C): 53.8 mL/min/kg
